Data on 16 compounds can be found in patent US20090018134A1, “Compounds - 945” (AstraZeneca AB, priority 2007, published 2009).

What all share (type): biochemical
In assay [1] the target is T1, mTOR (Homo sapiens, UniProt P42345).
T1 construct: FLAG; made in house
Put plainly: In Vitro mTOR Kinase Assay (Echo), Test (a)(ii). In a few lines:
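Inhibition of truncated mTOR (1362-2549, FLAG-tagged, purified from stably transfected HEK293 cells) is measured as reduced AlphaScreen signal from a phospho-T389-recognising antibody bound to the biotinylated peptide product. Kinase incubation lasts 2 hours at room temperature. Potency is given as IC50.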

Assay [2] concerns the target T2, p110α Type Ia human PI3K (Homo sapiens, UniProt P42336).
T2 construct: full length DNA of each of the p110α, p110β and p110δ Type Ia human PI3K p110 isoforms; 6-His; made in house
Put plainly: In Vitro PI3K Enzyme Assay (AlphaScreen), Test (b)(i), p110α. The note with it: read-out: IC50 versus p110α Type Ia human PI3K. An excerpt: (b)(i) In Vitro PI3K Enzyme Assay
The assay used AlphaScreen technology (Gray et al., Analytical Biochemistry, 2003, 313: 234-245) to determine the ability of test compounds to inhibit phosphorylation by recombinant Type I PI3K enzymes of the lipid PI(4,5)P2.
DNA fragments encoding human PI3K catalytic and regulatory subunits were isolated from cDNA libraries using standard molecular biology and PCR cloning techniques. The selected DNA fragments were used to generate baculovirus expression vectors. In particular, full length DNA of each of the p110α, p110β and p110δ Type Ia human PI3K p110 isoforms (EMBL Accession Nos. HSU79143, S67334, Y10055 for p110α, p110β and p110δ respectively) were sub-cloned into a pDEST10 vector (Invitrogen Limited, Fountain Drive, Paisley, UK). The vector is a Gateway-adapted version of Fastbac1 containing a 6-His epitope tag. […]
Biotinylated-DiC8-PI(3,4,5)P3 (50 nM; Cell Signals Inc., Catalogue No. 107), recombinant purified GST-Grp1 PH protein (2.5 nM) and AlphaScreen Anti-GST donor and acceptor beads (100 ng; Packard Bioscience Limited, Station Road, Pangbourne, Berkshire, UK, Catalogue No. 6760603M) were added and the assay plates were left for about 5 to 20 hours at room temperature in the dark. The resultant signals arising from laser light excitation at 680 nm were read using a Packard AlphaQuest instrument. […]

Assay [3] addresses T1, mTOR. Put plainly: mTOR Kinase Assay (Echo).
Where [4] appears, read: table of enzyme assay Test (a)(ii), read-out: Test (a)(ii) IC50.

T1 sequence (P42345 1362-2549): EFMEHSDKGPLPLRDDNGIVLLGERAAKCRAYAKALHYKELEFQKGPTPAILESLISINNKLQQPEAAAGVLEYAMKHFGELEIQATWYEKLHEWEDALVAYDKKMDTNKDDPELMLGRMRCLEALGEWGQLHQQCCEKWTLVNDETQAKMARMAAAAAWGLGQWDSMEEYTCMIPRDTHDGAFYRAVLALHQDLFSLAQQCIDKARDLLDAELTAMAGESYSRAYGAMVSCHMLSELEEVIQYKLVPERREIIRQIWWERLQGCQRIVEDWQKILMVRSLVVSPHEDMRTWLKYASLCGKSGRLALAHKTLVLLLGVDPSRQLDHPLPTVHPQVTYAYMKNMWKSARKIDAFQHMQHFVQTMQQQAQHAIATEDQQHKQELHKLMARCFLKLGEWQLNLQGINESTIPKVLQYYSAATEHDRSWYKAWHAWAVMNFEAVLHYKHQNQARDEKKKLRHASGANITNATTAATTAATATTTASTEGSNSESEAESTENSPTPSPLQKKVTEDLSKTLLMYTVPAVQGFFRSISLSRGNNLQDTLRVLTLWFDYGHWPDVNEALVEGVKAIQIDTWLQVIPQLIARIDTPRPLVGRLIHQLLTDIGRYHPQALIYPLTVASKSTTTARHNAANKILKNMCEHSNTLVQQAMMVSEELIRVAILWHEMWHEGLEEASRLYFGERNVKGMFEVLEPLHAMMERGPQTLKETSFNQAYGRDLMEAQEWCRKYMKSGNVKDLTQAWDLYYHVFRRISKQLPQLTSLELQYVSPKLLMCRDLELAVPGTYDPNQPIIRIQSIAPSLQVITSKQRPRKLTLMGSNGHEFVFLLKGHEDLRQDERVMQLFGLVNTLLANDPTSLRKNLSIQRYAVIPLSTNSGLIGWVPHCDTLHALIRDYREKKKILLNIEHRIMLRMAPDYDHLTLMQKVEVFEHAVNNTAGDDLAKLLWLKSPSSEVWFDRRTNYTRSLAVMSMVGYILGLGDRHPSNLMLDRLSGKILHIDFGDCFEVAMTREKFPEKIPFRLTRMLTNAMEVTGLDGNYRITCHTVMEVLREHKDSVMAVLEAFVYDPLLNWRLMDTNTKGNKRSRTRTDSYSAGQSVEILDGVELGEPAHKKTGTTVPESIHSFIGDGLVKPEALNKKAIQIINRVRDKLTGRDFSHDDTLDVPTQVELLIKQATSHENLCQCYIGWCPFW
T2 sequence (P42336 whole entry, canonical isoform): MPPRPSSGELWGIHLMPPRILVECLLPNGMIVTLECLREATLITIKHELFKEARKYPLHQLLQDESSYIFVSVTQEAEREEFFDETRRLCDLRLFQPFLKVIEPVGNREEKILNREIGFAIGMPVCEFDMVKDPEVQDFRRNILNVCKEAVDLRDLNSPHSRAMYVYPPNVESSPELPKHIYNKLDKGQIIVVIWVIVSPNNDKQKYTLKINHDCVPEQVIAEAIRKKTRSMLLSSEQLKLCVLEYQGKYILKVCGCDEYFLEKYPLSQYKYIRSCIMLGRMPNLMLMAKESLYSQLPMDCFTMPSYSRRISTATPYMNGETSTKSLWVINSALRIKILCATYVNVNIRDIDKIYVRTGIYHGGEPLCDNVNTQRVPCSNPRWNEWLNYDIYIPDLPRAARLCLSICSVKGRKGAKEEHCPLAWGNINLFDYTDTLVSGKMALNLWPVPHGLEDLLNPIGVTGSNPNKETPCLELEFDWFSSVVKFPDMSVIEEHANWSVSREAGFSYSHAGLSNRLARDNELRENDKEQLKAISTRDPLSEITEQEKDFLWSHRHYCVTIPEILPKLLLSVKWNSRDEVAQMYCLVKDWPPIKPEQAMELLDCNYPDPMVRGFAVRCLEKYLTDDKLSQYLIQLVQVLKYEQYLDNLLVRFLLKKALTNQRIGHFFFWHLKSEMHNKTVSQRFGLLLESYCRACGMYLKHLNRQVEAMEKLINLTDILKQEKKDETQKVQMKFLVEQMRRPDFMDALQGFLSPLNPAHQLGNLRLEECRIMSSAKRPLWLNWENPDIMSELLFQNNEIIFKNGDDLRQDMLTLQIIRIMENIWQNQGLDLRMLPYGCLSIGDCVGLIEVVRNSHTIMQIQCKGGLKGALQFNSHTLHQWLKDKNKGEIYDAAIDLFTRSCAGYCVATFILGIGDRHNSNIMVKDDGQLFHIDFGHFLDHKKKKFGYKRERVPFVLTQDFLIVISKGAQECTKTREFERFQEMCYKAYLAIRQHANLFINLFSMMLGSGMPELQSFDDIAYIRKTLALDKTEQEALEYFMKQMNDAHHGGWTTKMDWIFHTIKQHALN
T2 sequence (P27986 whole entry partner, canonical isoform): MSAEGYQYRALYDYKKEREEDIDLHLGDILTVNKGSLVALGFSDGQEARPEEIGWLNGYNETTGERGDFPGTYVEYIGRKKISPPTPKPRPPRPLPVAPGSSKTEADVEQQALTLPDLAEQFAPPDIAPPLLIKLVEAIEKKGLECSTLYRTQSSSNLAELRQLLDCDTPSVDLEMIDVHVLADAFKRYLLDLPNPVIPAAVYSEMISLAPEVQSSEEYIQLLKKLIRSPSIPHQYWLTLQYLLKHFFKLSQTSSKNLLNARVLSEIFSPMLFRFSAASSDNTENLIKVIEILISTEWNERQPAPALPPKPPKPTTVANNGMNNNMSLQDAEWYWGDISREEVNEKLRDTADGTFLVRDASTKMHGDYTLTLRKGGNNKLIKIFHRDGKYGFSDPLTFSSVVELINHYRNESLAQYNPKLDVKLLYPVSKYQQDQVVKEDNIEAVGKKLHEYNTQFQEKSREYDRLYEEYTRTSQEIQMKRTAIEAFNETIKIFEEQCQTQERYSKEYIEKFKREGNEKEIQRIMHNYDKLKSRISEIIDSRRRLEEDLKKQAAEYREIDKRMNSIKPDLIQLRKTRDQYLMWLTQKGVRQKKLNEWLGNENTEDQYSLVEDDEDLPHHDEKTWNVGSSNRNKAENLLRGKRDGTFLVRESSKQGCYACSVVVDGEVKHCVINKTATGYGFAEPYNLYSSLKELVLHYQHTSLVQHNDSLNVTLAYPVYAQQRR

Take `C[C@H]1COCCN1c1cc(C2(S(C)(=O)=O)CC2)nc(-c2ccc(NC(=O)Nc3cnn(C)c3)cc2)n1` [Example 2b, 1-[4-[4-[(3S)-3-methylmorpholin-4-yl]-6-(1-methylsulfonylcyclopropyl)pyrimidin-2-yl]phenyl]-3-(1-methylpyrazol-4-yl)urea]: the IC50 in assay [1] (read-out: mTOR Kinase Assay (Echo)) turned out to be 0.169 nM; in assay [2], 1040 nM.

Regarding `Cc1csc(S(=O)(=O)C2(c3cc(N4CCOC[C@@H]4C)nc(-c4ccc(NC(=O)NCCO)cc4)n3)CC2)n1` [Example 25g, 3-(2-hydroxyethyl)-1-[4-[4-[(3S)-3-methylmorpholin-4-yl]-6-[1-[(4-methyl-1,3-thiazol-2-yl)sulfonyl]cyclopropyl]pyrimidin-2-yl]phenyl]urea], the IC50 in assay [1] (setting [4]) was found to be 1.43 nM; in assay [3], 1.19 nM.

Turning to `C[C@H]1COCCN1c1cc(C2(S(=O)(=O)CCCO)CC2)nc(-c2ccc(NC(=S)NCCO)cc2)n1` [Example 37i, 3-(2-hydroxyethyl)-1-[4-[4-[1-(3-hydroxypropylsulfonyl)cyclopro-pyl]-6-[(3S)-3-methylmorpholin-4-yl]pyrimidin-2-yl]phenyl]thiourea], the IC50 in assay [1] (setting [4]) was determined as 3.79 nM; in assay [3], 3.06 nM.

`C[C@H]1COCCN1c1cc(C2(S(C)(=O)=O)CC2)nc(-c2ccc(NC(=O)NCCCO)cc2)n1` [Example 36bb, 3-(3-hydroxypropyl)-1-[4-[4-[(3S)-3-methylmorpholin-4-yl]-6-(1-methylsulfonylcyclopropyl)pyri-midin-2-yl]phenyl]urea]: the values for the IC50 in assay [1] (setting [4]) and in assay [3] were 5.13 nM and 20.5 nM, respectively.

With `C[C@H]1COCCN1c1cc(C2(S(=O)(=O)c3ccc(Cl)cc3)CC2)nc(-c2ccc(NC(=O)NCCO)cc2)n1` [Example 27h, 1-[4-[4-[1-(4-chlorophenyl)sulfonylcyclopropyl]-6-[(3S)-3-methylmorpholin-4-yl]pyrimidin-2-yl]phenyl]-3-(2-hydroxyethyl)urea], the figures for the IC50 in assay [1] (setting [4]) and in assay [3] were 0.244 nM and 0.0856 nM, respectively.

In the case of `C[C@H]1COCCN1c1cc(C2(S(=O)(=O)c3ccccc3)CC2)nc(-c2ccc(NC(=O)NCCCO)cc2)n1` [Example 36bl, 1-[4-[4-[1-(benzenesulfonyl)cyclopropyl]-6-[(3S)-3-methylmorpholin-4-yl]pyrimidin-2-yl]phenyl]-3-(3-hydroxypropyl)urea], the figures for the IC50 in assay [1] (setting [4]) and in assay [3] were 3.33 nM and 2.08 nM, respectively.

As to `CCNC(=S)Nc1ccc(-c2nc(N3CCOC[C@@H]3C)cc(C3(S(=O)(=O)CCCO)CC3)n2)cc1` [Example 37k, 1-ethyl-3-[4-[4-[1-(3-hydroxypropylsulfonyl)cyclopro-pyl]-6-[(3S)-3-methylmorpholin-4-yl]pyrimidin-2-yl]phenyl]thiourea], the IC50 in assay [1] (setting [4]) is 16.1 nM; in assay [3], 11.4 nM.

With `CCNC(=O)Nc1ccc(-c2nc(N3CCOC[C@@H]3C)cc(C3(S(=O)(=O)CCNC(C)=O)CC3)n2)cc1` [Example 45, N-[2-[1-[2-[4-(Ethylcarbamoylamino)phenyl]-6-[(3S)-3-methylmorpholin-4-yl]pyrimidin-4-yl]cyclopropyl]sulfonylethyl]acetamide], the IC50 came to 7.17 nM in assay [1] (setting [4]) and 21.9 nM in assay [3].

On to `C[C@H]1COCCN1c1cc(C2(S(C)(=O)=O)CC2)nc(-c2ccc(NC(=O)Nc3cnn(C)c3)c(F)c2)n1` [Example 52d, 1-[2-fluoro-4-[4-[(3S)-3-methylmorpholin-4-yl]-6-(1-methylsulfonylcyclopropyl)pyrimidin-2-yl]phenyl]-3-(1-methylpyrazol-4-yl)urea], for which the IC50 in assay [1] (setting [4]) amounted to 5.88 nM; in assay [3] it was 10.7 nM.

As for `CNC(=O)Nc1ccc(-c2nc(N3CCOC[C@@H]3C)cc(C3(S(=O)(=O)c4ccccc4)CC3)n2)cc1` [Example 36bj, 1-[4-[4-[1-(benzenesulfonyl)cyclopropyl]-6-[(3S)-3-methylmorpholin-4-yl]pyrimidin-2-yl]phenyl]-3-methylurea], the IC50 in assay [1] (setting [4]) came to 1.06 nM; in assay [3] it was 0.621 nM.

`C[C@H]1COCCN1c1cc(C2(S(=O)(=O)c3ccccc3)CC2)nc(-c2ccc(NC(=O)NCCO)cc2)n1` [Example 36bh, 1-[4-[4-[1-(benzenesulfonyl)cyclopropyl]-6-[(3S)-3-methylmorpholin-4-yl]pyrimidin-2-yl]phenyl]-3-(2-hydroxyethyl)urea]: the IC50 was found to be 1.37 nM in assay [1] (setting [4]) and 1.21 nM in assay [3].

With `N#CCCNC(=O)Nc1ccc(-c2nc(N3CCOCC3)cc(C3(S(=O)(=O)c4ccc(F)cc4)CC3)n2)cc1` [Example 36am, 3-(2-cyanoethyl)-1-[4-[4-[1-(4-fluorophenyl)sulfonylcyclopropyl]-6-morpholin-4-ylpyrimidin-2-yl]phenyl]urea], the IC50 in assay [1] (setting [4]) came out at 25.9 nM; in assay [3], 27.7 nM.

For `C[C@H]1COCCN1c1cc(C2(S(=O)(=O)c3ccccc3)CCC2)nc(-c2ccc(NC(=O)NCCO)cc2)n1` [Example 36bt, 1-[4-[4-[1-(benzenesulfonyl)cyclobutyl]-6-[(3S)-3-methylmorpholin-4-yl]pyrimidin-2-yl]phenyl]-3-(2-hydroxyethyl)urea], the IC50 in assay [1] (setting [4]) is 1.88 nM; in assay [3], 1.05 nM.

As for `CCNC(=O)Nc1ccc(-c2nc(N3CCOCC3)cc(C3(S(=O)(=O)c4nc(C)cs4)CC3)n2)cc1` [Example 42d, 1-ethyl-3-[4-[4-[1-[(4-methyl-1,3-thiazol-2-yl)sulfonyl]cyclopropyl]-6-morpholin-4-ylpyrimidin-2-yl]phenyl]urea], the results for the IC50 in assay [1] (setting [4]) and in assay [3] were 0.607 nM and 0.425 nM, respectively.

For `CNC(=S)Nc1ccc(-c2nc(N3CCOC[C@@H]3C)cc(C3(S(=O)(=O)c4ccccc4)CC3)n2)cc1` [Example 37ab, 1-[4-[4-[1-(benzenesulfonyl)cyclopropyl]-6-[(3S)-3-methylmorpholin-4-yl]pyrimidin-2-yl]phenyl]-3-methylthiourea], the IC50 in assay [1] (setting [4]) is 4.88 nM; in assay [3], 3 nM.

`CNC(=O)Nc1ccc(-c2nc(N3CCOC[C@@H]3C)cc(C3(S(=O)(=O)c4ccc(F)cn4)CC3)n2)cc1` [Example 48, 1-[4-[4-[1-(5-Fluoropyridin-2-yl)sulfonylcyclopropyl]-6-[(3S)-3-methylmorpholin-4-yl]pyrimidin-2-yl]phenyl]-3-methylurea]: the figures for the IC50 in assay [1] (setting [4]) and in assay [3] were 0.72 nM and 2.52 nM, respectively.
